Measurements from patent US20250177425A1, “SAIKOSAPONIN C AS COMPOSITION FOR TREATING OR PREVENTING AGE-RELATED VASCULAR DISEASES INCLUDING ARTERIOSCLEROSIS” (AGINGTARGET, INC., priority 2022, published 2025).

Columns and labels:
Assay type in all cases: cell-based, human
HUVEC [1] = test: Trypan blue staining, viable cell count under high glucose; details: 5 μM and 20 μM pretreatment 2 hours, 33 mM high glucose 1 week, dose-dependent
Procedure: (§1) Similar to Experimental Example 1, a high-fat diet evaluation system at the cell level was established.
(§2) Specifically, two types of vascular endothelial cells, namely, HUVEC and HPAEC cells, were pretreated with Saikosaponin C at concentrations of 5 μM and 20 μM for 2 hours, and then treated with high glucose at a concentration of 33 mM for 1 week. The number of viable cells was then analyzed by Trypan blue staining. The number of viable cells was based on the number of cells in the control group (none) set to “100”.

HPAEC [2] = test: as above; details: 5 μM and 20 μM pretreatment 2 hours, 33 mM high glucose 1 week, dose-dependent
Procedure: as §1, §2

[3] = tested on: ICAM-1 and VCAM-1 in HUVEC; test: Western blotting of adhesion proteins after TNF-α; details: 5 μM and 20 μM pretreatment 2 hours, TNF-α 20 ng/ml 8 hours
Procedure: (§3) Specifically, two types of vascular endothelial cells, namely, HUVEC (human umbilical vein endothelial cells) and HCAEC (human coronary artery endothelial cells), were pretreated with Saikosaponin C at concentrations of 5 μM and 20 μM for 2 hours, and then treated with TNF-α (20 ng/ml) for 8 hours. Then, adhesion of monocyte-vascular endothelial cell and expression of cell adhesion molecules (ICAM-1, VCAM-1) of vascular endothelial cells were observed. […] The adhesion of monocyte-endothelial cells was evaluated by imaging analysis using a confocal microscope and fluorescence analysis using a microplate reader, and expression of adhesion proteins (ICAM-1 and VCAM-1) was evaluated by Western blotting.
(§4) Calcein AM fluorescence was analyzed using a confocal microscope and a microplate reader, and the expression of cell adhesion proteins (ICAM-1, VCAM-1) were evaluated through Western blotting.
(§5) FIGS. 9A and 9B show the results of analysis of monocyte-endothelial cell adhesion in two types of vascular endothelial cells (HUVEC, HCAEC) using a confocal microscope, and FIGS. 9C and 9D show the results of analysis of Calcein AM fluorescence (at an excitation wavelength of 488 nm, and at an emission wavelength of 517 nm) in the same experiment using a microplate reader. […]

[4] = tested on: ICAM-1 and VCAM-1 in HCAEC; test: Western blotting of adhesion proteins after TNF-α; details: 5 μM and 20 μM pretreatment 2 hours, TNF-α 20 ng/ml 8 hours
Procedure: as §3, §4, §5

AoSMC = test: Wound healing and transwell migration assay, PDGF-BB-induced; details: 5 μM and 20 μM pretreatment 2 hours, PDGF-BB 20 ng/ml 24 hours
Procedure: (§6) Specifically, two types of vascular smooth muscle cells, namely, AoSMC (human aortic smooth muscle cells) and CASMC (human coronary artery smooth muscle cells), were pretreated with Saikosaponin C at concentrations of 5 μM and 20 μM for 2 hours, and then treated with PDGF-BB (20 ng/ml), a platelet-derived growth factor (PDGF), for 24 hours. Then, the proliferation and migration of vascular smooth muscle cells were observed. A wound healing assay was performed to observe the proliferation and migration of vascular smooth muscle cells, and a transwell migration assay was performed to observe the migration ability of vascular smooth muscle cells.
(§7) FIGS. 10A and 10B show the results of evaluating the proliferation and migration of vascular smooth muscle cells (AoSMC, CASMC) through a scratch wound healing assay. FIGS. 10C and 10D show the results of analyzing the cell migration ability of the same cells using a Transwell migration chamber with a pore size of 8.0 μm.

CASMC = test: as above; details: 5 μM and 20 μM pretreatment 2 hours, PDGF-BB 20 ng/ml 24 hours
Procedure: as §6, §7

HUVEC [5] = test: Mechanism study: SA-β-gal staining with NOS and Sirt1 inhibitors; details: 20 μM pretreatment 2 hours, 33 mM high glucose 72 hours
Procedure: Similar to Experimental Example 1, a high-fat diet evaluation system at the cellular level was established. Specifically, […], which are vascular endothelial cells, were pretreated with Saikosaponin C at a concentration of 20 μM for 2 hours, and then treated with high glucose at a concentration of 33 mM for 72 hours (for SA-β-gal staining) or 36 hours (for the analysis of enzyme activity of NOS and Sirt1). Then, SA-β-gal staining, NOS enzyme activity, and Sirt1 enzyme activity were analyzed. To analyze whether or not NOS and Sirt1 protein are involved in the anti-vascular aging effect of Saikosaponin C and the relationship between NOS and Sirt1 protein, L-NG-nitro arginine methyl ester (L-NAME) (5 mM), an inhibitor of NOS, and EX-527 (10 μM), an inhibitor of Sirt1 protein, were used. […] The senescence of vascular endothelial cells was assessed through intracellular SA-β-gal staining (FIG. 8A). The activities of NOS (FIG. 8B) and Sirt1 protein (FIG. 8C) were measured using the NOS Activity Assay Kit and the Sirt1 Activity Assay Kit, respectively.

HUVEC [6] = test: Fluorescence image analysis of high glucose-induced ROS generation; details: 5 μM and 20 μM pretreatment 2 hours, 33 mM high glucose 24 hours, dose-dependent
Procedure: (§8) Similar to Experimental Example 1, a high-fat diet evaluation system at the cellular level was established.
(§9) Specifically, two types of vascular endothelial cells, namely, HUVEC and HPAEC cells, were pretreated with Saikosaponin C at concentrations of 5 μM and 20 μM for 2 hours, and then treated with high glucose at a concentration of 33 mM for 24 hours. Then, hydrogen peroxide (H2O2) and superoxide anion (O2^⋅−) generated in the cytoplasm and mitochondria were measured using each fluorescent probe. In addition, samples treated with 100 μM hydrogen peroxide (a ROS-inducing agent) for 1 hour and then treated for an additional 23 hours after medium change were used as positive control groups.
(§10) Different analytical reagents were used depending on the type of ROS and the intracellular location where they were generated. Specifically, cytosolic hydrogen peroxide, cytosolic superoxide anion, mitochondrial hydrogen peroxide, and mitochondrial superoxide anion were measured using H2DCFDA (2,7-dichlorodihydrofluorescein diacetate), DHE (dihydroethidium), DHR (dihydrorhodamine 123), and Mito-SOX reagents, respectively. The H2DCFDA (1 μM, 45 min staining), DHE (10 µM, 60 min staining), DHR (20 µM, 30 min staining), and Mito-SOX (5 μM, 10 min staining) were used as ROS-specific fluorescent probes for fluorescence image analysis.

HPAEC [7] = test: as above; details: 5 μM and 20 μM pretreatment 2 hours, 33 mM high glucose 24 hours, dose-dependent
Procedure: as §8, §9, §10

Structure (SMILES): CC1O[C@@H](O[C@@H]2C(CO[C@@H]3OC(CO)[C@@H](O)C(O)C3O)O[C@@H](O[C@H]3CC[C@]4(C)[C@H]5C=C[C@]67OC[C@@]8(CCC(C)(C)C[C@H]86)[C@@H](O)C[C@@]7(C)[C@]5(C)CC[C@H]4C3(C)C)C(O)C2O)C(O)C(O)[C@H]1O (stereo partly drawn) [Saikosaponin C]
- high glucose-induced cell growth inhibition (number of viable cells, Trypan blue) (HUVEC [1]): significantly alleviated
- high glucose-induced cell growth inhibition (number of viable cells, Trypan blue) (HPAEC [2]): significantly alleviated
- expression of adhesion proteins (ICAM-1, VCAM-1) of vascular endothelial cells [3]: inhibited
- expression of adhesion proteins (ICAM-1, VCAM-1) of vascular endothelial cells [4]: inhibited
- PDGF-BB-increased proliferation and migration of vascular smooth muscle cells (AoSMC): not inhibited
- PDGF-BB-increased proliferation and migration of vascular smooth muscle cells (CASMC): not inhibited
- high glucose-induced SA-β-gal positive HUVEC cells (HUVEC [5]): reduced
- high glucose-induced ROS generation (cytosolic and mitochondrial hydrogen peroxide and superoxide anion) (HUVEC [6]): significantly suppressed
- high glucose-induced ROS generation (cytosolic and mitochondrial hydrogen peroxide and superoxide anion) (HPAEC [7]): significantly suppressed
